The record followed here is ChEMBL document CHEMBL3880381, “Selective inhibitors of aggrecanase in osteoarthritis treatment” (2001).

For orientation: IC50 means the concentration that inhibits the measured activity by half.

The target in one assay is T1, Interstitial collagenase (Homo sapiens, UniProt P03956).
T1 sequence (P03956 whole entry): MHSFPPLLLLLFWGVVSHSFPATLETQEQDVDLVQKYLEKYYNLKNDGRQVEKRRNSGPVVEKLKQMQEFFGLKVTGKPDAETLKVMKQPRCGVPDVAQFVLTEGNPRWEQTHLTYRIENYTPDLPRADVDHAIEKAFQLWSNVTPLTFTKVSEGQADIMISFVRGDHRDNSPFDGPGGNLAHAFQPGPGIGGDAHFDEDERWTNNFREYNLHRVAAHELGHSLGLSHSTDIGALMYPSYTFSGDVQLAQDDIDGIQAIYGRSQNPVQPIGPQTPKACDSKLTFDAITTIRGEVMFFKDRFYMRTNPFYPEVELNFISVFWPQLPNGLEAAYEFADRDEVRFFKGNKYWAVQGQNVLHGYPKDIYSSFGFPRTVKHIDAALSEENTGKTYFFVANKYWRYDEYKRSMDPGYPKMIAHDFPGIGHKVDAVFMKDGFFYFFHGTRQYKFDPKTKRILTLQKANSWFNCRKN
Put plainly: Inhibition of trypsin-activated recombinant human collagenase 1 preincubated with protein followed by addition of DNP-Pro-Cha-Gly-Cys(Me)-His-Ala-Lys(NMA)-NH2 as substrate measured after 20 mins by fluorescence analysis.

In the next assay the target is T2, Aggrecanase (Sus scrofa, UniProt F1S1A7+F1SHP0).
T2 sequence (F1S1A7 whole entry): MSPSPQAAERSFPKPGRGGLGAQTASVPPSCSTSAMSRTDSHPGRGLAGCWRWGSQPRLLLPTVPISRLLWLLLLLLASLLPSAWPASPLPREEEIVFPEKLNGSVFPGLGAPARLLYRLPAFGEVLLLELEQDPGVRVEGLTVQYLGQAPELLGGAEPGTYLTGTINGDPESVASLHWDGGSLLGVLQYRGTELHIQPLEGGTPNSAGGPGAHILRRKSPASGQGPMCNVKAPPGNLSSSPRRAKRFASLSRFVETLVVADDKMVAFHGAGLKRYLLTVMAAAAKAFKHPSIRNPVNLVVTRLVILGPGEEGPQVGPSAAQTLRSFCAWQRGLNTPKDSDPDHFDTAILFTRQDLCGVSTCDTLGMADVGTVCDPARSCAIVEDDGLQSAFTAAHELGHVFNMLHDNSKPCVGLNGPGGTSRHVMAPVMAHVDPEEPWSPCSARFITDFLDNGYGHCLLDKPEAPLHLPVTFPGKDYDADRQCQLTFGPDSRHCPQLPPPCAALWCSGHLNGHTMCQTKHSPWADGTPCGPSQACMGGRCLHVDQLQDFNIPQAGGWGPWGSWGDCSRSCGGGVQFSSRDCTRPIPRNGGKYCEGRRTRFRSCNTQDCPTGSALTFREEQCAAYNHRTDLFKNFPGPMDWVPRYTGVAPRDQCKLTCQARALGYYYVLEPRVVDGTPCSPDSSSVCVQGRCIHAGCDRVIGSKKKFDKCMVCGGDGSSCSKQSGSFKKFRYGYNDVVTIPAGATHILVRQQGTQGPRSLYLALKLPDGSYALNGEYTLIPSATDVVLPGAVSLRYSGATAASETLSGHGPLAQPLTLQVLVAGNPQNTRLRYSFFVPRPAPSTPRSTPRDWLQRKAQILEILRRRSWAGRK
T2 sequence (F1SHP0 whole entry): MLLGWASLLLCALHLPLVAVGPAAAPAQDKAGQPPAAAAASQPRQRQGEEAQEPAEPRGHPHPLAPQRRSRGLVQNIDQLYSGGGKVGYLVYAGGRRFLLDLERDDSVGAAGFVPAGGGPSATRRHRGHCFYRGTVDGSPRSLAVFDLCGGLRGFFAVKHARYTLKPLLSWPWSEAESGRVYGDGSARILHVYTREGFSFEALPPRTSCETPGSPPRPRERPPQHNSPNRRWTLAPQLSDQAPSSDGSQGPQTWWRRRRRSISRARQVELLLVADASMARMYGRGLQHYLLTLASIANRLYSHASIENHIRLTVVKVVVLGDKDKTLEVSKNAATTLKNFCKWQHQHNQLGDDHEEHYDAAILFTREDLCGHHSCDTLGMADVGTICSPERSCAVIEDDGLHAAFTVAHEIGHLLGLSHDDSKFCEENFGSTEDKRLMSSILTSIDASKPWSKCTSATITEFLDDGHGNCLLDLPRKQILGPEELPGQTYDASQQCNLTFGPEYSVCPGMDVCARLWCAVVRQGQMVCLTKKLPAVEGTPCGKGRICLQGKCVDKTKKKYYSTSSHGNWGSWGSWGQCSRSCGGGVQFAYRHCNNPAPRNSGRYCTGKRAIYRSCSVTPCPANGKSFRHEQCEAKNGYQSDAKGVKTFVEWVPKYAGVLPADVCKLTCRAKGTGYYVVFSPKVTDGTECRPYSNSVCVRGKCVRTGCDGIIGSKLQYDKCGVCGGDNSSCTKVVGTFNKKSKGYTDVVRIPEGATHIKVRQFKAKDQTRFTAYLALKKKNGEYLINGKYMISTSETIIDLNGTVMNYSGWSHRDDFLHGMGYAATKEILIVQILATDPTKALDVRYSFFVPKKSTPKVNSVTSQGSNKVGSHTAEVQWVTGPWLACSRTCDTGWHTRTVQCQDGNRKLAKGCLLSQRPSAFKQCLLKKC
The assay can be described thus: Inhibition of aggrecanase in primary porcine chondrocytes assessed as inhibition of 35S-proteoglycan release measured after 9 to 12 hrs by liquid scintillation counting method. The class given is cell-based.

Assay [1] deals with Disintegrin and metalloproteinase domain-containing protein 17 (Homo sapiens, UniProt P78536). The assay can be described thus: Inhibition of TACE in human mononuclear cells assessed as inhibition of LPS-induced TNF-alpha production measured after 4 hrs in presence of LPS by ELISA. In kind it is cell-based.
Another assay addresses Collagenase 3 (Homo sapiens, UniProt P45452). Put plainly: Inhibition of APMA-activated recombinant human collagenase 3 preincubated with protein followed by addition of DNP-Pro-Cha-Gly-Cys(Me)-His-Ala-Lys(NMA)-NH2 as substrate measured every 5 mins for 1 hr by fluorescence analysis.

Sequence of Disintegrin and metalloproteinase domain-containing protein 17 (P78536 whole entry, the tested form may be a part): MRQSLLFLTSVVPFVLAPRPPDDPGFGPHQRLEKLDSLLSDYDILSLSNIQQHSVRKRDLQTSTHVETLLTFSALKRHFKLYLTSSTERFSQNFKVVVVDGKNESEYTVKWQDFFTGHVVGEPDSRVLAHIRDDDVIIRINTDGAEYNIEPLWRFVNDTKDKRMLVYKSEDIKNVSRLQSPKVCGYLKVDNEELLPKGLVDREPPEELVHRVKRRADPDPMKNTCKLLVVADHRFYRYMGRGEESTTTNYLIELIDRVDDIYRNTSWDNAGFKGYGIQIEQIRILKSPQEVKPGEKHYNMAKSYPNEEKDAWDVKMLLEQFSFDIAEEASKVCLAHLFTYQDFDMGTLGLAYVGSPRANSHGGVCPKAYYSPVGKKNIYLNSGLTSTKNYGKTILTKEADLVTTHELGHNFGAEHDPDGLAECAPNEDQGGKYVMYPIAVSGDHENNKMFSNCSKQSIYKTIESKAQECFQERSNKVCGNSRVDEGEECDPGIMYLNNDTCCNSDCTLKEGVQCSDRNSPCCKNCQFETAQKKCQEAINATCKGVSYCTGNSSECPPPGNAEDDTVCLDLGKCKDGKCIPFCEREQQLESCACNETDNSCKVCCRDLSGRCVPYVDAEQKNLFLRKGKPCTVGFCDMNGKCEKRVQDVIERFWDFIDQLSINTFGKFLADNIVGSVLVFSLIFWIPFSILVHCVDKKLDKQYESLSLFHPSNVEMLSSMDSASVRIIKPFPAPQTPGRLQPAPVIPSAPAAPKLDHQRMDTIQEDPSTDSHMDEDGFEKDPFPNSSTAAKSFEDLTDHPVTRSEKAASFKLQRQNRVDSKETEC

Take `C[C@@]1(O)CCCN(S(=O)(=O)c2ccc(OCc3ccccc3F)cc2)[C@H]1C(=O)NO`: the IC50 was in the range of 20 to 200 nM on Interstitial collagenase, 10 to 20 nM at Aggrecanase and 20000 to 40000 nM in assay [1].
Regarding `NS(=O)(=O)c1ccc(CCNC(=O)[C@H](CC2CCCCC2)NC(=O)[C@H](CCCc2ccccc2)CC(=O)NO)cc1`, the IC50 in assay [1] is 3000 nM.
Consider `Cc1cc(F)ccc1COc1ccc(S(=O)(=O)N2CC(=O)N[C@@H](C)[C@@H]2C(=O)NO)cc1`, for which the IC50 on Interstitial collagenase was greater than 1000 nM; on Collagenase 3, 10 to 20 nM; at Aggrecanase, less than 10 nM; in assay [1] it was less than 10000 nM.
The corresponding values for `CC1(C)C[C@@H](O)CN(S(=O)(=O)c2ccc(OCc3ccccc3Br)cc2)[C@H]1C(=O)NO` are 200 to 1000 nM, less than 10 nM, 10 to 20 nM and less than 10000 nM.
The corresponding values for `Cc1c(F)cccc1COc1ccc(S(=O)(=O)N2CCC[C@@](C)(O)[C@@H]2C(=O)NO)cc1` are greater than 1000 nM, less than 10 nM, 10 to 20 nM and less than 10000 nM.
On to `CC1(C)C[C@@H](O)CN(S(=O)(=O)c2ccc(OCc3ccc(F)cc3Cl)cc2)[C@H]1C(=O)NO`, for which the IC50 is 200 to 1000 nM on Interstitial collagenase, less than 10 nM on Collagenase 3, less than 10 nM on Aggrecanase and 10000 to 20000 nM in assay [1].
Consider `CC1(C)C[C@@H](O)CN(S(=O)(=O)c2ccc(OCc3ccc(Cl)cc3Cl)cc2)[C@H]1C(=O)NO`, for which the IC50 on Interstitial collagenase was 200 to 1000 nM; at Collagenase 3 it was less than 10 nM; at Aggrecanase, less than 10 nM; in assay [1], 20000 to 40000 nM.
For the compound `C[C@@]1(O)CCCN(S(=O)(=O)c2ccc(OCc3ccccc3Cl)cc2)[C@H]1C(=O)NO`, the IC50 was less than 10 nM on Collagenase 3, less than 10 nM at Aggrecanase and less than 10000 nM in assay [1].
Take `CNC(=O)[C@H](Cc1ccc(OC)cc1)NC(=O)[C@@H](CC(=O)NO)CC(C)C`: on Collagenase 3, the IC50 was determined as 1 nM.
Turning to `Cc1ccc(F)cc1COc1ccc(S(=O)(=O)N2CC(=O)N[C@@H](C)[C@@H]2C(=O)NO)cc1`, the half-maximal inhibitory concentration (IC50) at Interstitial collagenase is greater than 1000 nM; at Collagenase 3, 10 to 20 nM; on Aggrecanase, less than 10 nM; in assay [1] it was less than 10000 nM.
The corresponding values for `Cc1c(F)cccc1COc1ccc(S(=O)(=O)N2C[C@H](O)CC(C)(C)[C@@H]2C(=O)NO)cc1` are 200 to 1000 nM, less than 10 nM, less than 10 nM and less than 10000 nM.
For `C[C@@]1(O)CCCN(S(=O)(=O)c2ccc(OCc3ccc(Cl)cc3Cl)cc2)[C@H]1C(=O)NO`, in that order: 200 to 1000 nM, less than 10 nM, less than 10 nM and 10000 to 20000 nM.
The corresponding values for `CC1(C)C[C@@H](O)CN(S(=O)(=O)c2ccc(OCc3ccc(F)cc3)cc2)[C@H]1C(=O)NO` are 20 to 200 nM, less than 10 nM, less than 10 nM and 10000 to 20000 nM.
Regarding `CCc1ccccc1COc1ccc(S(=O)(=O)N2CCN(C(=O)NC)[C@@H](C)[C@@H]2C(=O)NO)cc1`, the IC50 was greater than 1000 nM on Interstitial collagenase, 20 to 200 nM on Collagenase 3, less than 10 nM on Aggrecanase and less than 10000 nM in assay [1].
For `Cc1ccccc1COc1ccc(S(=O)(=O)N2CCC[C@@](C)(O)[C@@H]2C(=O)NO)cc1`, in that order: 200 to 1000 nM, less than 10 nM, less than 10 nM and less than 10000 nM.
The corresponding values for `Cc1ccc(Cl)cc1COc1ccc(S(=O)(=O)N2C[C@H](O)CC(C)(C)[C@@H]2C(=O)NO)cc1` are greater than 1000 nM, 20 to 200 nM, 10 to 20 nM and 10000 to 20000 nM.
For `CNC(=O)N1CCN(S(=O)(=O)c2ccc(OCc3ccc(F)cc3F)cc2)[C@@H](C(=O)NO)[C@@H]1C`, in that order: 200 to 1000 nM, less than 10 nM, 10 to 20 nM and 10000 to 20000 nM.
Turning to `CC1(C)C[C@@H](O)CN(S(=O)(=O)c2ccc(OCc3cc(Cl)ccc3F)cc2)[C@H]1C(=O)NO`, the IC50 at Interstitial collagenase is 200 to 1000 nM; on Collagenase 3, less than 10 nM; on Aggrecanase it was 10 to 20 nM; in assay [1], 10000 to 20000 nM.
For `Cc1cc(F)ccc1COc1ccc(S(=O)(=O)N2C[C@H](O)CC(C)(C)[C@@H]2C(=O)NO)cc1`, in that order: 200 to 1000 nM, less than 10 nM, less than 10 nM and less than 10000 nM.
Take `Cc1cc(F)ccc1COc1ccc(S(=O)(=O)N2CCC[C@@](C)(O)[C@@H]2C(=O)NO)cc1`: the IC50 on Collagenase 3 is less than 10 nM; at Aggrecanase, less than 10 nM; in assay [1], less than 10000 nM.
For the compound `Cc1ccc(F)cc1COc1ccc(S(=O)(=O)N2CCC[C@@](C)(O)[C@@H]2C(=O)NO)cc1`, the IC50 at Collagenase 3 was less than 10 nM; at Aggrecanase, 10 to 20 nM; in assay [1] it was less than 10000 nM.
For `CNC(=O)N1CCN(S(=O)(=O)c2ccc(OCc3cc(F)ccc3C)cc2)[C@@H](C(=O)NO)[C@@H]1C`, the IC50 at Interstitial collagenase is greater than 1000 nM; on Collagenase 3 it was less than 10 nM; at Aggrecanase it was less than 10 nM; in assay [1] it was less than 10000 nM.
With `Cc1ccccc1COc1ccc(S(=O)(=O)N2CCN(C(=O)CN)[C@@H](C)[C@@H]2C(=O)NO)cc1`, the IC50 at Interstitial collagenase was greater than 1000 nM; on Collagenase 3, 20 to 200 nM; at Aggrecanase, less than 10 nM; in assay [1] it was less than 10000 nM.
The corresponding values for `C[C@@]1(O)CCCN(S(=O)(=O)c2ccc(OCc3ccc(F)cc3F)cc2)[C@H]1C(=O)NO` are 200 to 1000 nM, less than 10 nM, 10 to 20 nM and 10000 to 20000 nM.
For `Cc1ccccc1COc1ccc(S(=O)(=O)N2CCC[C@](C)(O)[C@@H]2C(=O)NO)cc1`, in that order: 200 to 1000 nM, less than 10 nM, 10 to 20 nM and less than 10000 nM.
For `C[C@@]1(O)CCCN(S(=O)(=O)c2ccc(OCc3ccc(F)cc3Cl)cc2)[C@H]1C(=O)NO`, in that order: 200 to 1000 nM, less than 10 nM, less than 10 nM and 10000 to 20000 nM.
